Consider one molecule from patent publication US20160193240A1, “Ulmoside-A: Useful For Prevention Or Cure Of Metabolic Diseases” (COUNCIL OF SCIENTIFIC & INDUSTRIAL RESEARCH, priority 2013, published 2016).

The structures appear in SMILES notation.

Assay [1] concerns C2C12 myotubes. As to the kind of experiment: Glucose uptake assay (3H-deoxyglucose) in C2C12 myotubes. In kind it is cell-based, mouse. The conditions noted are these: 10 nM. As to the method: A. ULMA enhances glucose uptake in C2C12 myotubes. C2C12 myotubes in 24 well plates were treated with vehicle (DMSO) or 10 nM ULMA and glucose uptake assay was performed in presence or absence of 100 nM insulin. Data is mean±SEM of six independent experiments performed in triplicates. *p<0.05, **p<0.01, ***p<0.001 as determined by two tailed unpaired student's t-test.
C. siAdipoR1 eliminates ULMA induction of glucose uptake. C2C12 myotubes were transfected with nonsilencing siC or siAdipoR1. 72 h after transfection, cells were treated for 24 h with 10 nM ULMA and glucose uptake assay was performed. Data is mean±SEM of three independent experiments performed in triplicates. ***p<0.001 as determined by two tailed unpaired student's t-test.
(§1) Adiponectin is known to enhance glucose uptake and fatty acid oxidation in skeletal muscle and myotubes (T. Kadowaki, T. Yamauchi, N. Kubota, K. Hara, K. Ueki, K. Tobe. J Clin Invest. 116(7): 1784-1792. 2006; T. Yamauchi, J. Kamon, Y. Ito, A. Tsuchida, T. Yokomizok, S. Kita, T. Sugiyama, M. Miyagishi, K. Hara, M. Tsunodaq, K. Murakamiq, T. Ohteki, S. Uchida, S. Takekawa, H. Waki, N. H. Tsuno, Y. Shibata, Y. Terauchi, P. Froguel, K. Tobe, S. Koyasu, K. Taira, T. Kitamura, T. Shimizuk, R. Nagai, T. Kadowaki. Nature. 423(6941):762-769. 2003). Therefore the ability of ULMA to influence insulin-dependent and independent glucose uptake and fatty acid oxidation was investigated in C2C12 myotubes. […] Subsequently, the cells were lysed in 100 μl 0.5N NaOH and 5 μl lysate was used for protein concentration determination, and rest of the lysate was used to measure cellular radioactivity in a beta-counter (Beckman Coulter). […] Radioactivity that had become adsorbed onto the filter discs was then quantified by liquid scintillation counting in a beta-counter (Beckman Coulter). The cells were lysed with 200 μl 0.5N NaOH and 5 μl of the lysate was used for protein estimation using Bradford assay and the radioactivity was normalized with the protein content.

The subject of assay [2] is C2C12 myotubes. In words: Fatty acid oxidation (14CO2 release from 14C palmitate) in C2C12 myotubes. Format: cell-based, mouse. The conditions noted are these: 10 nM. As to the method:
B. ULMA enhances fatty acid oxidation in C2C12 myotubes. C2C12 myotubes plated in 12 well plates were treated with vehicle (0.1% vol/vol DMSO) or 10 nM ULMA in DMSO (final concentration of DMSO in all wells 0.1% for 2 h, 24 h or 48 h. Data represent mean±SEM of three independent experiments performed in triplicates. Following treatment, ^14CO2 release from these cells was measured and plotted. *p<0.05, **p<0.01, ***p<0.001 as determined by two tailed unpaired student's t-test.
D. siAdipoR1 eliminates ULMA induction of fatty acid oxidation. C2C12 myotubes were transfected with nonsilencing siC or siAdipoR1. 72 h after transfection, cells were treated for 24 h with 10 nM ULMA and fatty acid oxidation experiments were performed. Data is mean±SEM of three independent experiments performed in triplicates. **p<0.01 as determined by two tailed unpaired student's t-test.
as §1, with “2003).” for “2003). Therefore the ability of ULMA to influence insulin-dependent and independent glucose uptake and fatty acid oxidation was investigated in C2C12 myotubes.”

The test system of another assay is wistar rats. As to the kind of experiment: Dexamethasone-induced skeletal muscle atrophy in rats (limb appearance, QRT-PCR of PGC-1α and atrogenes). In kind it is in vivo, rat. As to the method: Following 15 d indicated treatment of rats, the skeletal muscle (pulled hind limb) were collected and RNA was extracted from them and QRT-PCR was performed in a Roche lightcycler 480 machine. Data represents mean+/−SEM from six animals done in triplicates. “a” statistical analysis between Vehicle and Dexamethasone-treated groups, “b”, statistical analysis between dex-treated and dex+ ULMA groups. P<0.05, as determined by student's t-test, n=6.
Blood was collected from cardiac punctures.
RNA was isolated from skeletal muscles using Trizol (according to manufacturers' protocol) and reverse transcribed as described above and either PGC-1α expression or muscle atrophy related genes (atrogenes) expression were examined.

Where [3] appears, read: 24 h, 72 h after siRNA transfection.

`O=C1c2c(cc(O)c([C@@H]3O[C@H](CO)[C@@H](O)[C@H](O)[C@H]3O)c2O)O[C@@H](c2ccc(O)c(O)c2)[C@@H]1O` [ULMA, (2S,3S)-(+)-3′,4′,5,7-tetrahydroxydihydroflavonol-6-C-β-D-glucopyranoside]: in the assay with C2C12 myotubes [1] (setting [3]), the “ULMA-induced glucose uptake with siAdipoR1 (not siC)” value is “completely eliminated”. For the same molecule, the “glucose uptake in absence of insulin” value in the assay with C2C12 myotubes [1] (24 hours) was “enhanced”. In addition, the “glucose uptake in presence of insulin” value in the assay on C2C12 myotubes [1] (24 hours, 100 nM insulin 20 min) was “enhanced”. Further, the “time of treatment at which induction of fatty acid oxidation was visible” value in the assay on C2C12 myotubes [2] is not above 2 h. The fatty acid oxidation entry with C2C12 myotubes [2] (2 h, 24 h or 48 h, increased with time) is on record as “robustly induced”. For the same molecule, in the assay with C2C12 myotubes [2] (setting [3]), the “ULMA-induced fatty acid oxidation with siAdipoR1 (not siC)” value is “completely eliminated”. Further, in the assay on wistar rats (Dex + ULMA), the “Dex-caused reduction of skeletal muscle PGC-1α level” value is reported as “protected” and the “protection against induction of atrogenes by dexamethasone” value is “completely protected”. For the same molecule, the “skeletal muscle PGC-1α expression” value in the assay with wistar rats (ULMA alone) is given as “robust induction”. In addition, in the assay on wistar rats (ULMA co-treatment with Dex), the Dex-induced limb abnormality result is recorded as “prevented it”.
